From ChEMBL document CHEMBL1201862, “PubChem BioAssay data set” (2004)
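These data come from cells grown in 96-well plates and exposed to compound for 48 hours at five concentrations. GI50 is the concentration that inhibits growth by half.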 Active and inactive are the calls of the source. Cut-off read from the data, not from the text of the source: active = GI50 up to about 1.1 µM and inactive = higher.

Key:
Experiment in all cases: inhibition of tumour cell growth, NCI panel, 48 h
HL-60 = system: HL-60
UO-31 = system: UO-31
NCI-H522 = system: NCI-H522
OVCAR-4 = system: OVCAR-4
NCI/ADR-RES = system: NCI/ADR-RES
HCT-116 = system: HCT-116
HT-29 = system: HT-29
SF-295 = system: SF-295
UACC-62 = system: UACC-62
SNB-19 = system: SNB-19
OVCAR-3 = system: OVCAR-3
ACHN = system: ACHN
HCC 2998 = system: HCC 2998
MDA-MB-231 = system: MDA-MB-231
LOX IMVI = system: LOX IMVI
CAKI-1 = system: CAKI-1
SF-539 = system: SF-539
SK-MEL-5 = system: SK-MEL-5
SN12C = system: SN12C
CCRF-CEM = system: CCRF-CEM
SK-OV-3 = system: SK-OV-3
SW-620 = system: SW-620
A549 = system: A549
TK-10 = system: TK-10
HOP-62 = system: HOP-62
BT-549 = system: BT-549
M14 = system: M14
PC-3 = system: PC-3
SR = system: SR
NCI-H23 = system: NCI-H23
SK-MEL-2 = system: SK-MEL-2
NCI-H226 = system: NCI-H226
MDA-N = system: MDA-N
SNB-75 = system: SNB-75
RXF 393 = system: RXF 393
COLO 205 = system: COLO 205
MDA-MB-435 = system: MDA-MB-435
SF-268 = system: SF-268
OVCAR-5 = system: OVCAR-5
EKVX = system: EKVX
786-0 = system: 786-0
UACC-257 = system: UACC-257
DU-145 = system: DU-145
Hs-578T = system: Hs-578T
KM12 = system: KM12
HCT-15 = system: HCT-15
MCF7 = system: MCF7
MOLT-4 = system: MOLT-4
IGROV-1 = system: IGROV-1
U-251 = system: U-251
SK-MEL-28 = system: SK-MEL-28
OVCAR-8 = system: OVCAR-8
NCI-H460 = system: NCI-H460
HOP-92 = system: HOP-92
RPMI-8226 = system: RPMI-8226
K562 = system: K562
Malme-3M = system: Malme-3M

COc1ccccc1NC(=O)/C(Cc1nc2ccc([N+](=O)[O-])cc2nc1O)=N\NC(=O)C[N+](C)(C)C
GI50 (HL-60): 12.3 µM (inactive)
GI50 (UO-31): 25.7 µM (inactive)
GI50 (NCI-H522): 28.3 µM (inactive)
GI50 (OVCAR-4): > 100 µM (inactive)
GI50 (NCI/ADR-RES): 38.6 µM (inactive)
GI50 (HCT-116): 46.8 µM (inactive)
GI50 (HT-29): 30.5 µM (inactive)
GI50 (SF-295): 55.7 µM (inactive)
GI50 (UACC-62): 62.5 µM (inactive)
GI50 (SNB-19): > 100 µM (inactive)
GI50 (OVCAR-3): 41.7 µM (inactive)
GI50 (ACHN): > 100 µM (inactive)
GI50 (HCC 2998): 29.6 µM (inactive)
GI50 (MDA-MB-231): > 100 µM (inactive)
GI50 (LOX IMVI): > 100 µM (inactive)
GI50 (CAKI-1): 70.3 µM (inactive)
GI50 (SF-539): 49.5 µM (inactive)
GI50 (SK-MEL-5): 26.4 µM (inactive)
GI50 (SN12C): > 100 µM (inactive)
GI50 (CCRF-CEM): 13.3 µM (inactive)
GI50 (SK-OV-3): > 100 µM (inactive)
GI50 (SW-620): 48 µM (inactive)
GI50 (A549): > 100 µM (inactive)
GI50 (TK-10): > 100 µM (inactive)
GI50 (HOP-62): > 100 µM (inactive)
GI50 (BT-549): > 100 µM (inactive)
GI50 (M14): 57.1 µM (inactive)
GI50 (PC-3): > 100 µM (inactive)
GI50 (SR): 1.44 µM (inactive)
GI50 (NCI-H23): > 100 µM (inactive)
GI50 (SK-MEL-2): > 100 µM (inactive)
GI50 (NCI-H226): > 100 µM (inactive)
GI50 (MDA-N): 14.9 µM (inactive)
GI50 (SNB-75): > 100 µM (inactive)
GI50 (RXF 393): > 100 µM (inactive)
GI50 (COLO 205): 37.2 µM (inactive)
GI50 (MDA-MB-435): 20 µM (inactive)
GI50 (SF-268): > 100 µM (inactive)
GI50 (OVCAR-5): > 100 µM (inactive)
GI50 (EKVX): 78 µM (inactive)
GI50 (786-0): 68.7 µM (inactive)
GI50 (UACC-257): > 100 µM (inactive)
GI50 (DU-145): > 100 µM (inactive)
GI50 (Hs-578T): > 100 µM (inactive)
GI50 (KM12): 31.8 µM (inactive)
GI50 (HCT-15): 40.7 µM
GI50 (MCF7): 72.8 µM (inactive)
GI50 (MOLT-4): 16.1 µM (inactive)
GI50 (IGROV-1): 55.3 µM (inactive)
GI50 (U-251): > 100 µM (inactive)
GI50 (SK-MEL-28): > 100 µM (inactive)
GI50 (OVCAR-8): > 100 µM (inactive)
GI50 (NCI-H460): 38.1 µM (inactive)
GI50 (HOP-92): > 100 µM (inactive)

COc1ccc(N2C(=O)c3cc([N+](=O)[O-])cnc3S2(=O)=O)cc1
GI50 (HL-60): > 100 µM (inactive)
GI50 (UO-31): > 100 µM (inactive)
GI50 (NCI-H522): > 100 µM (inactive)
GI50 (OVCAR-4): > 100 µM (inactive)
GI50 (NCI/ADR-RES): > 100 µM (inactive)
GI50 (HCT-116): > 100 µM (inactive)
GI50 (HT-29): > 100 µM (inactive)
GI50 (SF-295): > 100 µM (inactive)
GI50 (UACC-62): > 100 µM (inactive)
GI50 (SNB-19): > 100 µM (inactive)
GI50 (OVCAR-3): > 100 µM (inactive)
GI50 (ACHN): > 100 µM (inactive)
GI50 (HCC 2998): > 100 µM (inactive)
GI50 (MDA-MB-231): > 100 µM (inactive)
GI50 (LOX IMVI): > 100 µM (inactive)
GI50 (SN12C): > 100 µM (inactive)
GI50 (CCRF-CEM): > 100 µM (inactive)
GI50 (SK-OV-3): > 100 µM (inactive)
GI50 (SW-620): > 100 µM (inactive)
GI50 (A549): > 100 µM (inactive)
GI50 (TK-10): > 100 µM (inactive)
GI50 (HOP-62): > 100 µM (inactive)
GI50 (BT-549): > 100 µM (inactive)
GI50 (PC-3): > 100 µM (inactive)
GI50 (SR): > 100 µM (inactive)
GI50 (NCI-H23): > 100 µM (inactive)
GI50 (SK-MEL-2): > 100 µM (inactive)
GI50 (RPMI-8226): > 100 µM (inactive)
GI50 (NCI-H226): > 100 µM (inactive)
GI50 (MDA-N): > 100 µM (inactive)
GI50 (SNB-75): > 100 µM (inactive)
GI50 (RXF 393): > 100 µM (inactive)
GI50 (COLO 205): > 100 µM (inactive)
GI50 (MDA-MB-435): > 100 µM (inactive)
GI50 (SF-268): > 100 µM (inactive)
GI50 (OVCAR-5): > 100 µM (inactive)
GI50 (EKVX): > 100 µM (inactive)
GI50 (786-0): > 100 µM (inactive)
GI50 (DU-145): > 100 µM (inactive)
GI50 (Hs-578T): > 100 µM (inactive)
GI50 (KM12): > 100 µM (inactive)
GI50 (HCT-15): > 100 µM
GI50 (MOLT-4): > 100 µM (inactive)
GI50 (IGROV-1): > 100 µM (inactive)
GI50 (U-251): > 100 µM (inactive)
GI50 (SK-MEL-28): > 100 µM (inactive)
GI50 (K562): > 100 µM (inactive)
GI50 (Malme-3M): > 100 µM (inactive)
GI50 (OVCAR-8): > 100 µM (inactive)
GI50 (NCI-H460): > 100 µM (inactive)
GI50 (HOP-92): > 100 µM (inactive)
